Results from BindingDB's records for doi:10.1016/s0960-894x(00)00321-8 (Dupont Pharmaceuticals, 2000).

The compounds below were run against T1, Gag-Pol polyprotein [588-1027]/[588-1147] (Human immunodeficiency virus 1, UniProt P04585) (assay: HIV-1 RT Assay). Conditions: pH 8.2; 37 °C.
T1 construct: 588-1027; 588-1147
Source text: The IC50 of reverse transcriptase is the concentration that inhibits 50% of recombinant HIV-1 RT RNA-directed DNA polymerase activity in vitro.

CC(C)C(=O)N1c2ccccc2NC(=O)C1(C#CC1CC1)C(F)(F)F (stereo not drawn) [3-(2-cyclopropylethynyl)-4-(2-methylpropanoyl)-3-(trifluoromethyl)-1,2,3,4-tetrahydroquinoxalin-2-one] was tested. Which IC50 did it give?
Its IC50 is 0.16 µM.

O=C(c1ccccc1)N1c2ccccc2NC(=O)C1(C#CC1CC1)C(F)(F)F (stereo not drawn) [4-benzoyl-3-(2-cyclopropylethynyl)-3-(trifluoromethyl)-1,2,3,4-tetrahydroquinoxalin-2-one] was tested. Which IC50 did it give?
Its IC50 is > 5 µM.

With O=C(C1CC1)N1c2ccccc2NC(=O)C1(C#CC1CC1)C(F)(F)F (stereo not drawn) [4-cyclopropanecarbonyl-3-(2-cyclopropylethynyl)-3-(trifluoromethyl)-1,2,3,4-tetrahydroquinoxalin-2-one] as the compound, how does the IC50 read?
The IC50 was 0.127 µM.
